Experimental data from the supplement of paper PMC10307832.

How the values were obtained:
Assay in all cases: relative viability (nuclei count vs DMSO), 5 days (fraction); higher = more cells survive
[1] = compound: C1=CC2=NC=CN=C2C=C1/C=C/3\C(=O)NC(=O)S3 + CC(=O)c1c(C)c2cnc(Nc3ccc(N4CCNCC4)cn3)nc2n(C2CCCC2)c1=O [Palbociclib] (partner 0.5 µM)
Procedure, shortened: (§1)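 Five library-drug doses in √10 steps were combined with a fixed anchor-drug dose, or a single drug was given alone, by pin tool to lung cancer cell lines in 1536-well plates the day after seeding. Nuclei were stained and counted after 5 days. Relative viability is the nuclei count in treated wells over that in vehicle wells, taken as the median of duplicate plates.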

[2] = compound: CCN1CCN(c2ccc(Nc3cc(N(C)C(=O)Nc4c(Cl)c(OC)cc(OC)c4Cl)ncn3)cc2)CC1 [BGJ398] + C[C@@H](Oc1cc(-c2cnn(C3CCNCC3)c2)cnc1N)c1c(Cl)ccc(F)c1Cl [Crizotinib] (partner 1 µM)
Procedure, shortened: as §1

[3] = compound: CCN1CCN(c2ccc(Nc3cc(N(C)C(=O)Nc4c(Cl)c(OC)cc(OC)c4Cl)ncn3)cc2)CC1 [BGJ398] + Nc1ncn([C@H]2C[C@H](O)[C@@H](CO)O2)c(=O)n1 [Decitabine] (partner 2 µM)
Procedure, shortened: as §1

[4] = compound: C1=CC2=NC=CN=C2C=C1/C=C/3\C(=O)NC(=O)S3 + NC(=O)Nc1cc(-c2cccc(F)c2)sc1C(=O)N[C@H]1CCCNC1 [AZD7762] (partner 0.2 µM)
Procedure, shortened: as §1

Row | Cell Line | relative viability ([1]; first compound 0.02 µM) | relative viability ([1]; first compound 0.06325 µM) | relative viability ([1]; first compound 0.2 µM) | relative viability ([1]; first compound 0.6325 µM) | relative viability ([1]; first compound 2 µM) | relative viability ([2]; first compound 0.01 µM) | relative viability ([2]; first compound 0.03162 µM) | relative viability ([2]; first compound 0.1 µM) | relative viability ([2]; first compound 0.3162 µM) | relative viability ([2]; first compound 1 µM) | relative viability ([3]; first compound 0.01 µM) | relative viability ([3]; first compound 0.03162 µM) | relative viability ([3]; first compound 0.1 µM) | relative viability ([3]; first compound 0.3162 µM) | relative viability ([3]; first compound 1 µM) | relative viability ([4]; first compound 0.02 µM) | relative viability ([4]; first compound 0.06325 µM) | relative viability ([4]; first compound 0.2 µM) | relative viability ([4]; first compound 0.6325 µM) | relative viability ([4]; first compound 2 µM)
1 | NCI-H1666 | 0.608 | 0.749 | 0.629 | 0.651 | 0.675 | 0.944 | 1.06 | 0.938 | 1.3 | 0.96 | 0.634 | 0.763 | 0.814 | 0.68 | 0.506 | 0.748 | 0.731 | 0.865 | 0.827 | 0.608
2 | HCC-366 | 0.355 | – | 0.357 | 0.366 | 0.374 | 0.474 | 0.66 | 0.768 | 0.627 | 0.59 | 0.336 | 0.371 | 0.355 | 0.306 | 0.347 | 0.276 | – | 0.247 | 0.235 | 0.303
3 | SK-MES-1 | 0.328 | 0.305 | 0.344 | 0.338 | 0.313 | 0.944 | 1.05 | 1 | 0.942 | 0.967 | 0.377 | 0.345 | 0.41 | 0.349 | 0.321 | – | – | – | – | –
4 | SW 1573 | 0.464 | 0.56 | 0.346 | 0.309 | 0.33 | 0.878 | 0.802 | 0.773 | 0.808 | 0.767 | 0.501 | 0.557 | 0.478 | 0.498 | 0.466 | – | – | – | – | –
5 | NCI-H661 | 0.397 | 0.453 | 0.402 | 0.434 | 0.436 | – | 0.94 | 0.926 | 0.983 | 0.916 | 0.51 | 0.491 | 0.61 | 0.55 | 0.529 | – | – | – | – | –
6 | PC-3 [JPC-3] | 0.492 | 0.637 | 0.566 | 0.561 | 0.541 | 1.02 | – | 1.09 | 0.971 | 0.961 | 0.782 | – | 0.777 | – | 0.878 | 0.966 | 1.02 | 0.9 | 0.846 | 0.713
7 | Calu-6 | – | – | – | – | – | 0.737 | 0.86 | 0.948 | 0.745 | 0.781 | – | – | – | – | – | – | – | – | – | –
8 | LC-2-ad | 0.463 | 0.455 | 0.481 | 0.53 | 0.352 | 0.446 | 0.451 | 0.444 | 0.487 | 0.476 | 0.699 | 0.855 | 0.899 | 0.771 | 0.852 | 0.768 | 0.817 | 0.848 | 0.798 | 0.619
9 | CAL-12T | 0.394 | 0.664 | 0.454 | 0.48 | 0.403 | 0.68 | 0.796 | 0.548 | 0.811 | 0.631 | – | – | – | – | – | 0.675 | 0.531 | 0.655 | 0.582 | 0.726
